From publication PMC8781960, “Structural Basis of 2-Phenylamino-4-phenoxyquinoline Derivatives as Potent HIV-1 Non-Nucleoside Reverse Transcriptase Inhibitors” (Molecules, 2022)
Marks after values point to notes of the source that are not given here.

Tests used:
[1] = tested on: H69AR (lung cancer, multidrug resistant); assay: In vitro cytotoxicity (MTT); type: cell-based, human; conditions: for IC50: Homo sapiens, H69AR, mean ± standard error
Method: Background control wells contained the same volume as the complete culture medium. […] The reagent was dissolved in phosphate-buffered saline at 5 mg/mL and filtered to sterilize and remove the small amount of insoluble residue present in some batches of MTT. […] Subsequently, dimethyl sulfoxide (100 µL; Merck, Germany) was added to dissolve the resulting formazan by sonication. The plates were read on a microplate reader (Molecular Devices, CA, USA) using a test wavelength of 550 nm and a reference wavelength of 650 nm.

[2] = tested on: MOLT-3 (acute lymphoblastic leukemia); assay: In vitro cytotoxicity (XTT); conditions: for IC50: Homo sapiens, MOLT-3, 48 h, read-out: IC50 MOLT-3
Method: (§1) Background control wells contained the same volume as the complete culture medium. […] Samples at various concentrations were added to the microplate and incubated for another 48 h. Cell viability was determined by 3(4,5-dimethylthiazol-2-yl)-2-5-diphenyl tetrazolium bromide (MTT) assay (Sig-ma-Aldrich). The reagent was dissolved in phosphate-buffered saline at 5 mg/mL and filtered to sterilize and remove the small amount of insoluble residue present in some batches of MTT. […] Subsequently, dimethyl sulfoxide (100 µL; Merck, Germany) was added to dissolve the resulting formazan by sonication. The plates were read on a microplate reader (Molecular Devices, CA, USA) using a test wavelength of 550 nm and a reference wavelength of 650 nm. XTT assay for suspension cells was used for MOLT-3 cells.

[3] = target: T1, HIV-1 RT (Human immunodeficiency virus type 1 group M subtype B, UniProt P03366); assay: HIV-1 RT inhibition assay (Roche RT kit, colorimetric ELISA); type: biochemical; conditions: for inhibition at 1 µM: read-out: Inhibitory activities (%) against HIV-1 RT
T1 construct: The reaction mixture consisted of template/primer complex, 2′-deoxy-nucleotide-5′-triphosphates (dNTPs), and RT enzyme in lysis buffer; purchased Roche Applied Science, Mannheim, Germany
Description: The inhibition assay of HIV-1 RT was accomplished using the template/primer hybrid poly(A) × oligo(dT)15, digoxigenin (DIG)- and biotin-labeled nucleotides, an antibody to DIG that was conjugated to peroxidase (anti-DIG-POD), and the peroxidase substrate ABTS. The quantities of DIG- and biotin-labeled dUTP incorporated into DNA represent t HIV-1 RT activity. The HIV-RT inhibition assay was implemented using an RT assay kit (Roche Applied Science, Mannheim, Germany), and the procedures for assaying RT inhibition were performed as described in the kit protocol. […] The reaction mixture consisted of template/primer complex, 2′-deoxy-nucleotide-5′-triphosphates (dNTPs), and RT enzyme in lysis buffer with or without an inhibitor. […] The biotin-labeled dNTPs that were incorporated in the template bound to streptavidin because of the presence of RT. Unbound dNTPs were washed using a wash buffer, and anti-DIG-POD was added to the MTP. The DIG-labeled dNTPs incorporated in the template bound to the anti-DIG-POD antibody. Unbound anti-DIG-POD was also washed elaborately five times using a wash buffer. Finally, the peroxide substrate (ABST) was added to the MTP. A colored reaction product emerged during the cleavage of the substrate catalyzed by […]. The absorbance of the sample was measured at the optical density (OD) at 490 nm using the MTP (enzyme-linked immunosorbent assay [ELISA]) reader. The percentage inhibitory activities of the RT inhibitors were calculated by comparing with that of the sample without an inhibitor. The resulting color intensity was directly proportional to the RT activity. Percentage inhibitory values were calculated using the following formula: Inhibition (%) = [1–(OD value with RT and inhibitor−OD value without RT and inhibitors)/(OD value without inhibitors with RT−OD value without RT and inhibitors)] × 100.

[4] = tested on: MDA-MB-231 (hormone-independent breast cancer); assay: In vitro cytotoxicity (MTT); conditions: for IC50: Homo sapiens, MDA-MB-231, 48 h, read-out: IC50 MDA-MB-231
Method: as §1

[5] = tested on: HuCCA-1 (cholangiocarcinoma); assay: In vitro cytotoxicity (MTT); conditions: for IC50: Homo sapiens, HuCC-A1, 48 h, read-out: IC50 HuCCA-1
Method: as §1

[6] = tested on: HeLA (cervical carcinoma); assay: In vitro cytotoxicity (MTT); conditions: for IC50: Homo sapiens, HeLa, read-out: IC50 HeLA
Method: as §1

[7] = tested on: HL-60 (promyeloblast); assay: In vitro cytotoxicity (MTT); conditions: for IC50: Homo sapiens, HL-60, 48 h, read-out: IC50 HL-60
Method: as §1

[8] = tested on: S102 (Thai liver cancer); assay: In vitro cytotoxicity (MTT); conditions: for IC50: Homo sapiens, read-out: IC50 S102
Method: as §1

[9] = tested on: A549 (lung carcinoma); assay: In vitro cytotoxicity (MTT); conditions: for IC50: Homo sapiens, A549, 48 h, read-out: IC50 A549
Method: as §1

[10] = tested on: T47-D (hormone-dependent breast cancer); assay: In vitro cytotoxicity (MTT); conditions: for IC50: Homo sapiens, T47D, read-out: IC50 T47-D
Method: as §1

[11] = tested on: HepG2 (hepatocarcinoma); assay: In vitro cytotoxicity (MTT); conditions: for IC50: Homo sapiens, HepG2, 48 h, read-out: IC50 HepG2
Method: as §1

[12] = tested on: MRC-5 (normal embryonic lung cell); assay: In vitro cytotoxicity (MTT), normal cell line; conditions: for IC50: Homo sapiens, MRC5, 48 h, read-out: IC50 MRC-5
Method: as §1

[13] = at 50 µg/mL, inactive (IC50 ≥ 50 µg/mL)
[14] = normal cell line, at 50 µg/mL, inactive (IC50 ≥ 50 µg/mL)

SMILES | melting point [°C] | IC50 ([1]; 48 h) [µM] | IC50 [2] [µM] | inhibition at 1 µM [3] [%] | IC50 [4] [µM] | IC50 [5] [µM] | IC50 ([6]; 48 h) [µM] | %C percentage cytotoxicity HL-60 [7, 13] | %C percentage cytotoxicity S102 [8, 13] | IC50 [9] [µM] | IC50 ([10]; 48 h) [µM] | IC50 [11] [µM] | IC50 [12] [µM] | %C percentage cytotoxicity H69AR ([1]; human, 48 h, 50 µg/mL) | IC50 [7] [µM] | %C percentage cytotoxicity T47-D [10, 13] | %C percentage cytotoxicity MRC-5 [12, 14] | %C percentage cytotoxicity MOLT-3 [2, 13] | %C percentage cytotoxicity HeLA [6, 13] | %C percentage cytotoxicity A549 [9, 13] | also measured
N#Cc1ccc(Oc2cc(Nc3ccc(C#N)cn3)nc3ccccc23)cc1 [Compound 6c, 4-(4′-cyanophenoxy)-2-(5″-cyanopyridin-2″ylamino)quinoline] | 225.7 to 225.9 | 66.2 ± 2.4 | 14.1 ± 0.4 | 27.6 ± 2.1 | 66.6 ± 3 | 22.9 ± 0.9 | 67.7 ± 0.6 | %C = 9.0 ^c | %C = 44.8 ^c | 14 ± 2.2 | 47.1 ± 3.3 | 101.7 ± 0.7 | 69.2 ± 12.4 | – | – | – | – | – | – | – | –
Cc1cc(C=O)cc(C)c1Oc1cc(Nc2ccc(C#N)cn2)nc2ccccc12 [Compound 6b, 4-(2’,6’-Dimethyl-4’-formylphenoxy)-2-(5″-cyanopyridin-2″ylamino)quinoline] | 275.7 to 276.5 | – | 12.7 ± 1.1 | 44.5 ± 2.8 | 103 ± 1.9 | 126 ± 1.8 | 25.7 ± 0.8 | – | – | 108 ± 1.2 | – | 92.8 ± 11.8 | – | %C = 21.0 ^c | 20.5 ± 2.1 | %C = 38.0 ^c | %C = 26.1 ^c | – | – | – | IC50 [3]: 1.93 µM; IC50 ([8]; 48 h): 112 ± 1.8 µM; cytotoxicity toward normal embryonic lung (MRC-5) cells, in words [12]: very low cytotoxicity
Cc1cc(C#N)cc(C)c1Oc1cc(Oc2c(C)cc(C#N)cc2C)c2ccccc2n1 [Compound 4d, 2,4-di-(2′,6′-Dimethyl-4′-cyanophenoxy)-quinoline] | 201.8 to 202.4 | – | – | 40.3 ± 3.3 | 92.5 ± 5 | 83.5 ± 11.1 | – | %C = 23.0 ^c | %C = 31.5 ^c | 55.5 ± 5.7 | 55.2 ± 1.5 | 92.2 ± 6.8 | – | %C = 38.0 ^c | – | – | %C = 26.9 ^c | %C = 13.0 ^c | %C = 40.0 ^c | – | –
N#Cc1ccc(Nc2cc(Oc3ccc(C=O)cc3)c3ccccc3n2)nc1 [Compound 6a, 4-(4’-formylphenoxy)-2-(5″-cyanopyridin-2″ylamino)quinoline] | 248 to 249 | 64.2 ± 2.5 | 5.13 ± 1.5 | 19.4 ± 1.8 | 68 ± 2 | 14.9 ± 1.1 | 15.4 ± 0.8 | – | %C = 31.7 ^c | – | 46.3 ± 0.2 | 23.7 ± 1 | 18.3 ± 3.9 | – | 15 ± 1.8 | – | – | – | – | %C = 42.0 ^c | –
Cc1cc(/C=C\C#N)cc(C)c1Oc1cc(Nc2ccc(C#N)cc2)nc2ccccc12 [Compound 9b-cis, 4-(4′-(2″-(E, Z)-cyanovinyl)-2′,6′-dimethyl-phenoxy)-2-(4″-cyanophenyl)-aminoquinoline] | – | – | 52.8 ± 2.1 | 32.5 ± 2.8 | – | – | 97.2 ± 5.1 | %C = 42.0 ^c | %C = 0.0 ^c | – | – | – | – | %C = 0.0 ^c | – | %C = 5.0 ^c | %C = 0.0 ^c | – | – | %C = 1.0 ^c | %C percentage cytotoxicity MDA-MB-231 [4, 13]: %C = 10.0 ^c; %C percentage cytotoxicity HuCCA-1 [5, 13]: %C = 10.0; %C percentage cytotoxicity HepG2 [11, 13]: %C = 9.8 ^c
Cc1cc(C=O)cc(C)c1Oc1cc(Oc2c(C)cc(C=O)cc2C)c2ccccc2n1 [Compound 4b, 2,4-di-(2′,6′-Dimethyl-4′-formylphenoxy)-quinoline] | 120.5 to 121 | 30.9 ± 5.7 | 61.6 ± 0.7 | 42.1 ± 2.5 | 15.3 ± 1.6 | 11.1 ± 0.7 | 5.3 ± 0.2 | – | – | 38.5 ± 1.3 | 22.5 ± 3.3 | 50.6 ± 1.2 | 60.4 ± 2 | – | 5.7 ± 2 | – | – | – | – | – | IC50 ([8]; 48 h): 89.4 ± 0.1 µM
Cc1cc(C=CC#N)cc(C)c1Oc1cc(Nc2ccc(C#N)cc2)c2ccccc2n1 [Compound 11b, 2-(4′-(2″-(E, Z)-cyanovinyl)-2′,6′-dimethyl-phenoxy)-4-(4″-cyanophenyl)-aminoquinoline] | 180.7 to 182.3 | – | – | 34.3 ± 2.6 | – | – | – | %C = 0.0 ^c | %C = 0.0 ^c | – | – | – | – | %C = 3.0 ^c | – | %C = 4.0 ^c | %C = 0.0 ^c | %C = 19.0 ^c | %C = 2.0 ^c | %C = 0.0 ^c | %C percentage cytotoxicity MDA-MB-231 [4, 13]: %C = 14.1 ^c; %C percentage cytotoxicity HuCCA-1 [5, 13]: %C = 0.0 ^c; %C percentage cytotoxicity HepG2 [11, 13]: %C = 3.7 ^c
Cc1cc(/C=C/C#N)cc(C)c1Oc1cc(Nc2ccc(C#N)cc2)nc2ccccc12 [Compound 9b-trans, 4-(4′-(2″-(E, Z)-cyanovinyl)-2′,6′-dimethyl-phenoxy)-2-(4″-cyanophenyl)-aminoquinoline] | – | – | – | 35.9 ± 3.1 | – | – | – | %C = 17.0 ^c | %C = 0.0 ^c | – | – | – | – | %C = 14.0 ^c | – | %C = 0.0 ^c | %C = 28.4 ^c | %C = 19.0 ^c | %C = 38.0 ^c | %C = 8.0 ^c | %C percentage cytotoxicity MDA-MB-231 [4, 13]: %C = 24.9 ^c; %C percentage cytotoxicity HuCCA-1 [5, 13]: %C = 8.0 ^c; %C percentage cytotoxicity HepG2 [11, 13]: %C = 42.9 ^c
Cc1ccnc2c1NC(=O)c1cccnc1N2C1CC1 [NVP, nevirapine, reference compound] | – | – | – | 53.4 ± 2.7 | – | – | – | – | – | – | – | – | – | – | – | – | – | – | – | – | %C percentage cytotoxicity H69AR [1, 13]: %C = 8.0 ^c; %C percentage cytotoxicity MOLT-3 ([2]; human, 48 h, 50 µg/mL): %C = 29.0 ^c; %C percentage cytotoxicity MDA-MB-231 ([4]; human, 48 h, 50 µg/mL): %C = 8.9 ^c; %C percentage cytotoxicity HuCCA-1 ([5]; human, 48 h, 50 µg/mL): %C = 11.0 ^c; %C percentage cytotoxicity HeLA ([6]; human, 48 h, 50 µg/mL): %C = 34.0 ^c; %C percentage cytotoxicity HL-60 ([7]; human, 48 h, 50 µg/mL): %C = 3.0 ^c; %C percentage cytotoxicity S102 ([8]; human, 48 h, 50 µg/mL): %C = 3.0 ^c; %C percentage cytotoxicity A549 ([9]; human, 48 h, 50 µg/mL): %C = 18.0 ^c; %C percentage cytotoxicity T47-D ([10]; human, 48 h, 50 µg/mL): %C = 14.0 ^c; %C percentage cytotoxicity HepG2 ([11]; human, 48 h, 50 µg/mL): %C = 15.4 ^c; %C percentage cytotoxicity MRC-5 ([12]; human, 48 h, 50 µg/mL): %C = 1.0 ^c
N#Cc1ccc(Nc2cc(Oc3ccc(C=O)cc3)nc3ccccc23)cc1 [Compound 8a, 2-(4′-formylphenoxy)-4-(4″-cyanophenyl)-aminoquinoline] | 238.5 to 238.9 | – | 21.5 ± 3.3 | 29.6 ± 2.7 | 118 ± 5.8 | 22.7 ± 1.9 | 112 ± 3.1 | – | %C = 2.9 ^c | 111 ± 5.6 | – | 85.3 ± 3.5 | 119 ± 5.7 | %C = 8.4 ^c | 107 ± 1.4 | %C = 0.0 ^c | – | – | – | – | –
